Data published in patent US10344025B2, “GLS1 inhibitors for treating disease” (Board of Regents, The University of Texas System, priority 2014, dated 2019).
Where two headings read alike, the source gives them in different places.

Key:
A549 cells = assay: Proliferation Assay (A549 viability, Cell Titer Fluor, 72 hours); type: cell-based
In short: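 Cell Titer Fluor fluorescence after 72 h compound treatment (0.5% DMSO, 37 °C, 5% CO2) of A549 cells plated 24 h earlier at 1000/well. Four-parameter logistic fitting gave IC50.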

[1] = biological target: purified recombinant human GAC (GLS1) (Homo sapiens (Human), UniProt O94925); assay: GLS1 Enzymatic Activity Assay (dual-coupled enzymatic assay, resorufin/Amplex UltraRed readout); type: biochemical;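 further: glutamate from GAC coupled via glutamate oxidase and peroxidase to resorufin, read as fluorescence (ex 530, em 590 nm) kinetically or at 20 min, four-parameter logistic IC50 fit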
Chain of purified recombinant human GAC (GLS1) (O94925 other isoform, or with tags, fused parts or gaps): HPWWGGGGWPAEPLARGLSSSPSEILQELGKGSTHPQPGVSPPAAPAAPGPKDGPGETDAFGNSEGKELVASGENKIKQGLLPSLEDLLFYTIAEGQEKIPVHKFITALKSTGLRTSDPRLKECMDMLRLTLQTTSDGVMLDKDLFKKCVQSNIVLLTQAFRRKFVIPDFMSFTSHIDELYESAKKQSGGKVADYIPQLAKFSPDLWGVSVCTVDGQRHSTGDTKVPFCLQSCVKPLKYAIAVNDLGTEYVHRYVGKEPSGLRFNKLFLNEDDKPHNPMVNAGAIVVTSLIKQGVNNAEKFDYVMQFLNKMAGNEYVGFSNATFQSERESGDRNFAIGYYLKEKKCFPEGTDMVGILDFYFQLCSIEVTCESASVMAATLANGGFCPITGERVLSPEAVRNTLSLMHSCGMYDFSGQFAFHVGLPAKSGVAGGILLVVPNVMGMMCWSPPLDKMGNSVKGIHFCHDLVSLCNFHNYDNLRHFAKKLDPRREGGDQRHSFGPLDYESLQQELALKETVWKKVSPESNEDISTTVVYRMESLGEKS

Row | EC50 (A549 cells; Homo sapiens, A549, 72 h) | IC50 [1] | EC50 (A549 cells) | SMILES
1 | > 5000 nM | 500 to 5000 nM | – | CNC(=O)c1cn(CC(F)CCc2nnc(C(=O)NCc3ccc(C(F)(F)F)cn3)s2)nn1 (stereo not drawn) [Example 189, 5-{3-fluoro-4-[4-(methylcarbamoyl)-1H-1,2,3-triazol-1-yl]butyl}-N-{[5-(trifluoromethyl)pyridin-2-yl]methyl}-1,3,4-thiadiazole-2-carboxamide]
2 | < 100 nM | < 100 nM | – | O=C(Cc1ccccn1)Nc1nnc(CC[C@H](F)Cn2cc(C(=O)NCc3cc(OC(F)(F)F)ccc3F)nn2)s1 [Example 197, (S)-1-(2-fluoro-4-(5-(2-(pyridin-2-yl)acetamido)-1,3,4-thiadiazol-2-yl)butyl)-N-(2-fluoro-5-(trifluoromethoxy)benzyl)-1H-1,2,3-triazole-4-carboxamide]
3 | < 100 nM | < 100 nM | – | O=C(Cc1ccccn1)Nc1nnc(CC[C@@H](F)Cn2cc(C(=O)NCc3cc(OC(F)(F)F)ccc3F)nn2)s1 [Example 198, (R)-1-(2-fluoro-4-(5-(2-(pyridin-2-yl)acetamido)-1,3,4-thiadiazol-2-yl)butyl)-N-(2-fluoro-5-(trifluoromethoxy)benzyl)-1H-1,2,3-triazole-4-carboxamide]
4 | 100 to 500 nM | < 100 nM | – | O=C(Cc1ccccn1)Nc1nnc(CC[C@@H](F)Cn2cc(C(=O)NCc3ccc(C(F)(F)F)cn3)nn2)s1 [Example 201, (R)-1-(2-fluoro-4-(5-(2-(pyridin-2-yl)acetamido)-1,3,4-thiadiazol-2-yl)butyl)-N-((5-(trifluoromethyl)pyridin-2-yl)methyl)-1H-1,2,3-triazole-4-carboxamide]
5 | < 100 nM | < 100 nM | – | O=C(Cc1cc(OC(F)(F)F)ccc1F)Nc1nnc(CCC(F)Cn2cc(C(=O)NCc3ccccn3)nn2)s1 (stereo not drawn) [Example 204, 1-(2-fluoro-4-(5-(2-(2-fluoro-5-(trifluoromethoxy)phenyl)acetamido)-1,3,4-thiadiazol-2-yl)butyl)-N-(pyridin-2-ylmethyl)-1H-1,2,3-triazole-4-carboxamide]
6 | < 100 nM | < 100 nM | – | COc1ccnc(CNC(=O)c2cn(CC(F)CCc3nnc(NC(=O)Cc4cc(OC(F)(F)F)ccc4F)s3)nn2)c1 (stereo not drawn) [Example 205, 1-(2-fluoro-4-(5-(2-(2-fluoro-5-(trifluoromethoxy)phenyl)acetamido)-1,3,4-thiadiazol-2-yl)butyl)-N-((4-methoxypyridin-2-yl)methyl)-1H-1,2,3-triazole-4-carboxamide]
7 | < 100 nM | < 100 nM | – | COc1cccc(CNC(=O)c2cn(CC(F)CCc3nnc(NC(=O)Cc4cc(OC(F)(F)F)ccc4F)s3)nn2)n1 (stereo not drawn) [Example 206, 1-(2-fluoro-4-(5-(2-(2-fluoro-5-(trifluoromethoxy)phenyl)acetamido)-1,3,4-thiadiazol-2-yl)butyl)-N-((6-methoxypyridin-2-yl)methyl)-1H-1,2,3-triazole-4-carboxamide]
8 | < 100 nM | < 100 nM | – | CNC(=O)c1cn(CCCCc2ccc(NC(=O)Cc3cc(-c4ccccc4OC(F)(F)F)ccn3)nn2)nn1 [Example 207, N-methyl-1-(4-(6-(2-(4-(2-(trifluoromethoxy)phenyl)pyridin-2-yl)acetamido)pyridazin-3-yl)butyl)-1H-1,2,3-triazole-4-carboxamide]
9 | < 100 nM | < 100 nM | – | O=C(Cc1ccccn1)Nc1ccc(CCC(F)Cn2cc(C(=O)NCc3cc(C(F)(F)F)ccn3)nn2)nn1 (stereo not drawn) [Example 211, 1-(2-fluoro-4-(6-(2-(pyridin-2-yl)acetamido)pyridazin-3-yl)butyl)-N-((4-(trifluoromethyl)pyridin-2-yl)methyl)-1H-1,2,3-triazole-4-carboxamide]

Second part, the compound before the results:

Row | SMILES | EC50 (A549 cells; Homo sapiens, A549, 72 h) | IC50 [1] | EC50 (A549 cells)
10 | CNC(=O)c1cn(CCC(F)Cn2cc(C(=O)NCc3cccc(S(C)(=O)=O)c3)nn2)nn1 (stereo not drawn) [Example 183, 1-[3-fluoro-4-(4-{[(3-methanesulfonylphenyl)methyl]carbamoyl}-1H-1,2,3-triazol-1-yl)butyl]-N-methyl-1H-1,2,3-triazole-4-carboxamide] | > 5000 nM | 100 to 500 nM | –
11 | CNC(=O)c1cn(CCC(F)Cn2cc(C(=O)NCc3ccc(C(F)(F)F)cn3)nn2)nn1 (stereo not drawn) [Example 184, 1-{3-fluoro-4-[4-({[5-(trifluoromethyl)pyridin-2-yl]methyl}carbamoyl)-1H-1,2,3-triazol-1-yl]butyl}-N-methyl-1H-1,2,3-triazole-4-carboxamide] | > 5000 nM | 500 to 5000 nM | –
12 | CNC(=O)c1cn(CCC(F)Cn2cc(C(=O)NCc3cccc(C(=O)OC)c3)nn2)nn1 (stereo not drawn) [Example 185, methyl 3-{[(1-{2-fluoro-4-[4-(methylcarbamoyl)-1H-1,2,3-triazol-1-yl]butyl}-1H-1,2,3-triazol-4-yl)formamido]methyl} benzoate] | 500 to 5000 nM | 100 to 500 nM | –
13 | CNC(=O)c1cn(CCC(F)Cn2cc(C(=O)NCc3ccc(C(F)(F)F)nc3)nn2)nn1 (stereo not drawn) [Example 186, 1-{3-fluoro-4-[4-({[6-(trifluoromethyl)pyridin-3-yl]methyl}carbamoyl)-1H-1,2,3-triazol-1-yl]butyl}-N-methyl-1H-1,2,3-triazole-4-carboxamide] | 500 to 5000 nM | 100 to 500 nM | –
14 | CNC(=O)c1cn(CCC(F)Cn2cc(C(=O)NCc3ccc(C)nc3)nn2)nn1 (stereo not drawn) [Example 187, 1-[3-fluoro-4-(4-{[(6-methylpyridin-3-yl)methyl]carbamoyl}-1H-1,2,3-triazol-1-yl)butyl]-N-methyl-1H-1,2,3-triazole-4-carboxamide] | > 5000 nM | 100 to 500 nM | –
15 | CNC(=O)c1cn(CCCCc2ccc(NC(=O)Cc3cncc(-c4cccc(OC(F)(F)F)c4)c3)nn2)nn1 [Example 188, N-methyl-1-(4-(6-(2-(5-(3-(trifluoromethoxy)phenyl)pyridin-3-yl)acetamido)pyridazin-3-yl)butyl)-1H-1,2,3-triazole-4-carboxamide] | < 100 nM | < 100 nM | –
16 | CNC(=O)c1cn(C[C@@H](F)CCc2nnc(NC(=O)Cc3cccc(OC(F)(F)F)c3)s2)nn1 [Example 193, (S)-1-(2-fluoro-4-(5-(2-(3-(trifluoromethoxy)phenyl)acetamido)-1,3,4-thiadiazol-2-yl)butyl)-N-methyl-1H-1,2,3-triazole-4-carboxamide] | – | < 100 nM | 500 to 5000 nM
17 | CNC(=O)c1cn(C[C@@H](F)CCc2nnc(NC(=O)Cc3cccc(OC(F)(F)F)c3)s2)nn1 [Example 194, (S)-1-(2-fluoro-4-(5-(2-(3-(trifluoromethoxy)phenyl)acetamido)-1,3,4-thiadiazol-2-yl)butyl)-N-methyl-1H-1,2,3-triazole-4-carboxamide] | – | < 100 nM | < 100 nM
18 | CNC(=O)c1cn(CC(F)CCc2nnc(NC(=O)Cc3cncc(-c4cccc(OC(F)(F)F)c4)c3)s2)nn1 (stereo not drawn) [Example 195, 1-(2-fluoro-4-(5-(2-(5-(3-(trifluoromethoxy)phenyl)pyridin-3-yl)acetamido)-1,3,4-thiadiazol-2-yl)butyl)-N-methyl-1H-1,2,3-triazole-4-carboxamide] | < 100 nM | < 100 nM | –
19 | CNC(=O)c1cn(CCCCc2ccc(NC(=O)Cc3cccc(C4=CCOCC4)c3)nn2)nn1 [Example 199, 1-(4-(6-(2-(3-(3,6-dihydro-2H-pyran-4-yl)phenyl)acetamido)pyridazin-3-yl)butyl)-N-methyl-1H-1,2,3-triazole-4-carboxamide] | 100 to 500 nM | < 100 nM | –
20 | CNC(=O)c1cn(CCCCc2ccc(NC(=O)Cc3cc(C4CCOCC4)ccn3)nn2)nn1 [Example 208, N-methyl-1-(4-(6-(2-(4-(tetrahydro-2H-pyran-4-yl)pyridin-2-yl)acetamido)pyridazin-3-yl)butyl)-1H-1,2,3-triazole-4-carboxamide] | 100 to 500 nM | < 100 nM | –
21 | CNC(=O)c1cn(CC(F)CCc2nnc(C(=O)NCc3cccc(N4CCCCC4)c3)s2)nn1 (stereo not drawn) [Example 209, 5-(3-fluoro-4-(4-(methylcarbamoyl)-1H-1,2,3-triazol-1-yl)butyl)-N-(3-(piperidin-1-yl)benzyl)-1,3,4-thiadiazole-2-carboxamide] | 100 to 500 nM | 100 to 500 nM | –
22 | CNC(=O)c1cn(CCCCc2ccc(NC(=O)Cc3cccc(C4=CCN(C(=O)OC(C)(C)C)CC4)c3)nn2)nn1 [Example 212, tert-butyl 4-(3-(2-((6-(4-(4-(methylcarbamoyl)-1H-1,2,3-triazol-1-yl)butyl)pyridazin-3-yl)amino)-2-oxoethyl)phenyl)-3,6-dihydropyridine-1(2H)-carboxylate] | < 100 nM | < 100 nM | –
23 | CNC(=O)c1cn(CCCCc2ccc(NC(=O)Cc3cccc(C4CCN(C(=O)OC(C)(C)C)CC4)c3)nn2)nn1 [Example 213, tert-butyl 4-(3-(2-((6-(4-(4-(methylcarbamoyl)-1H-1,2,3-triazol-1-yl)butyl)pyridazin-3-yl)amino)-2-oxoethyl)phenyl)piperidine-1-carboxylate] | < 100 nM | < 100 nM | –
24 | CNC(=O)c1cn(CCCCc2ccc(NC(=O)CN3CCCCC3=O)nn2)nn1 [Example 214, N-methyl-1-(4-(6-(2-(2-oxopiperidin-1-yl)acetamido)pyridazin-3-yl)butyl)-1H-1,2,3-triazole-4-carboxamide] | > 5000 nM | 100 to 500 nM | –
25 | CNC(=O)c1cn(CCCCc2ccc(NC(=O)CN3CCC(c4ccccc4)CC3)nn2)nn1 [Example 215, N-methyl-1-(4-(6-(2-(4-phenylpiperidin-1-yl)acetamido)pyridazin-3-yl)butyl)-1H-1,2,3-triazole-4-carboxamide] | 500 to 5000 nM | 100 to 500 nM | –
26 | CNC(=O)c1nnc(CCCCc2ccc(NC(=O)Cc3cncc(-c4cccc(OC(F)(F)F)c4)c3)nn2)s1 [Example 216, N-methyl-5-(4-(6-(2-(5-(3-(trifluoromethoxy)phenyl)pyridin-3-yl)acetamido)pyridazin-3-yl)butyl)-1,3,4-thiadiazole-2-carboxamide] | < 100 nM | < 100 nM | –
27 | CNC(=O)c1cn(CCCCc2ccc(NC(=O)Cc3cccc(C4CCOCC4)c3)nn2)nn1 [Example 217, N-methyl-1-(4-(6-(2-(3-(tetrahydro-2H-pyran-4-yl)phenyl)acetamido)pyridazin-3-yl)butyl)-1H-1,2,3-triazole-4-carboxamide] | 100 to 500 nM | < 100 nM | –
